Laboratory results as given in ChEMBL document CHEMBL1150470, “The synthesis and cognition enhancing effects of a series of dibenzoyl guanidines. Analogs of N,N-[[4-(aminocarbonyl)phenyl]carbonimidoyl]bis[benzamide]” (1992).
Activity calls are given as the source filed them. The rule behind the calls is not given here.

Key:
Mus musculus [1] = test: The compound was evaluated for improvement of anoxic amnesia in mice after ip administration at 100 mg/kg dose; type: functional; conditions: route intraperitoneal
Mus musculus [2] = test: Evaluated for hypoxic survival activity in mice after intraperitoneal administration at 50 mg/kg dose; 35-50; type: functional; conditions: ip
Mus musculus [3] = test: The compound was evaluated for improvement of anoxic amnesia in mice after ip administration at 10 mg/kg dose; Inactive; type: functional, organism-based; set-up: dose 10 mg/kg
Mus musculus [4] = test: Evaluated for hypoxic survival activity in mice after intraperitoneal administration at 10 mg/kg dose; 40-55; type: functional; conditions: ip
Mus musculus [5] = test: Evaluated for hypoxic survival activity in mice after intraperitoneal administration at 100 mg/kg dose; 65-80; type: functional; conditions: ip
Mus musculus [6] = test: Evaluated for hypoxic survival activity in mice after intraperitoneal administration at 10 mg/kg dose; type: functional; conditions: ip
Mus musculus [7] = test: The compound was evaluated for improvement of anoxic amnesia in mice after ip administration at 50-200 mg/kg dose; Inactive; type: functional, organism-based
Mus musculus [8] = test: Evaluated for hypoxic survival activity in mice after intraperitoneal administration at 100 mg/kg dose; 35-50; type: functional; conditions: ip
Mus musculus [9] = test: Evaluated for hypoxic survival activity in mice after intraperitoneal administration at 25 mg/kg dose; 5-55; type: functional; conditions: ip
Mus musculus [10] = test: Evaluated for hypoxic survival activity in mice after intraperitoneal administration at 0.125 mg/kg dose; 60-80; type: functional; conditions: ip
Mus musculus [11] = test: Evaluated for hypoxic survival activity in mice after intraperitoneal administration at 100 mg/kg dose; 45-70; type: functional; conditions: ip
Mus musculus [12] = test: Evaluated for hypoxic survival activity in mice after po administration of 100 mg/kg dose; type: functional
Mus musculus [13] = test: The compound was evaluated for improvement of anoxic amnesia in mice after ip administration at 50 mg/kg dose; 33-76; type: functional; conditions: route intraperitoneal
Mus musculus [14] = test: Evaluated for hypoxic survival activity in mice after intraperitoneal administration at 50 mg/kg dose; type: functional; conditions: ip
Mus musculus [15] = test: The compound was evaluated for improvement of anoxic amnesia in mice after ip administration at 25 mg/kg dose; type: functional; conditions: route intraperitoneal
Mus musculus [16] = test: Evaluated for hypoxic survival activity in mice after intraperitoneal administration at 10 mg/kg dose; 45-55; type: functional; conditions: ip
Mus musculus [17] = test: Evaluated for hypoxic survival activity in mice after intraperitoneal administration at 100 mg/kg dose; 30-95; type: functional; conditions: ip
Mus musculus [18] = test: Evaluated for hypoxic survival activity in mice after intraperitoneal administration at 100 mg/kg dose; 15-50; type: functional; conditions: ip
Mus musculus [19] = test: Evaluated for hypoxic survival activity in mice after intraperitoneal administration at 10 mg/kg dose; 50-50; type: functional; conditions: ip
Mus musculus [20] = test: The compound was evaluated for improvement of anoxic amnesia in mice after ip administration at 10 mg/kg dose; 74-(-19); type: functional; conditions: route intraperitoneal
Mus musculus [21] = test: The compound was evaluated for improvement of anoxic amnesia in mice after ip administration at 100 mg/kg dose; Inactive; type: functional, organism-based; set-up: dose 100 mg/kg
Mus musculus [22] = test: Evaluated for hypoxic survival activity in mice after intraperitoneal administration at 100 mg/kg dose; 55-80; type: functional; conditions: ip
Mus musculus [23] = test: The compound was evaluated for improvement of anoxic amnesia in mice after ip administration at 50 mg/kg dose; 53, -8, 102; type: functional; conditions: route intraperitoneal
Mus musculus [24] = test: Evaluated for hypoxic survival activity in mice after intraperitoneal administration at 100 mg/kg dose; 95-95; type: functional; conditions: ip
Mus musculus [25] = test: Evaluated for hypoxic survival activity in mice after intraperitoneal administration at 25 mg/kg dose; 55-65; type: functional; conditions: ip
Mus musculus [26] = test: The compound was evaluated for improvement of anoxic amnesia in mice after ip administration at 50 mg/kg dose; type: functional; conditions: route intraperitoneal
Mus musculus [27] = test: Evaluated for hypoxic survival activity in mice after intraperitoneal administration at 100 mg/kg dose; type: functional; conditions: ip
Mus musculus [28] = test: Evaluated for hypoxic survival activity in mice after intraperitoneal administration at 100 mg/kg dose; 40-40; type: functional; conditions: ip
Mus musculus [29] = test: The compound was evaluated for improvement of anoxic amnesia in mice after ip administration at 10 mg/kg dose; type: functional; conditions: route intraperitoneal
Mus musculus [30] = test: Evaluated for hypoxic survival activity in mice after intraperitoneal administration at 100 mg/kg dose; 5-45; type: functional; conditions: ip
Mus musculus [31] = test: Evaluated for hypoxic survival activity in mice after intraperitoneal administration at 10 mg/kg dose; 50-80; type: functional; conditions: ip
Mus musculus [32] = test: Evaluated for hypoxic survival activity in mice after intraperitoneal administration at 25 mg/kg dose; 25-55; type: functional; conditions: ip

Cc1cccc(C(=O)/N=C(/NC(=O)c2cccc(C)c2)Nc2ccc(C(N)=O)cc2)c1
Improvement (Mus musculus [1]): 20%
survival at 50 mg/kg (Mus musculus [2]): 40%

CN(C)CCOc1ccc(C(=O)N/C(=N/C(=O)c2ccccc2)Nc2ccc(C(N)=O)cc2)cc1
Improvement (Mus musculus [3]): inactive
survival at 10 mg/kg (Mus musculus [4]): 48%

CC(C)(C)c1ccc(C(=O)N/C(=N/C(=O)c2ccccc2)Nc2ccc(C(N)=O)cc2)cc1
survival at 100 mg/kg (Mus musculus [5]): 72%

NC(=O)c1ccc(N/C(=N\C(=O)c2ccccc2)NC(=O)c2ccccc2C(F)(F)F)cc1
survival at 10 mg/kg (Mus musculus [6]): 5%

COc1ccc(C(=O)/N=C(/NC(=O)c2cccc(Cl)c2)Nc2ccc(C(N)=O)cc2)cc1
survival at 10 mg/kg (Mus musculus [6]): 15%

COc1ccc(C(=O)/N=C(/NC(=O)c2ccc(F)cc2)Nc2ccc(C(N)=O)cc2)cc1
Improvement (Mus musculus [7]): inactive
survival at 100 mg/kg (Mus musculus [8]): 42%

NC(=O)c1ccc(N/C(=N\C(=O)c2ccccc2)NC(=O)c2ccc(F)cc2)cc1
survival at 25 mg/kg (Mus musculus [9]): 35%

CNC(=O)Oc1ccc2c(c1)[C@]1(C)CCN(C)[C@@H]1N2C [PHYSOSTIGMINE]
survival at 0.125 mg/kg (Mus musculus [10]): 60%

NC(=O)c1ccc(N/C(=N\C(=O)c2ccccc2)NC(=O)c2cccc(C(F)(F)F)c2)cc1
survival at 10 mg/kg (Mus musculus [6]): 15%

NC(=O)c1ccc(N/C(=N\C(=O)c2ccccc2)NC(=O)c2ccccc2)cc1
survival at 100 mg/kg (Mus musculus [11]): 57%
survival at 100 mg/kg (Mus musculus [12]): 48%
Improvement (Mus musculus [13]): 50%

COc1ccc(C(=O)/N=C(/NC(=O)c2ccc(C(F)(F)F)cc2)Nc2ccc(C(N)=O)cc2)cc1
survival at 50 mg/kg (Mus musculus [14]): 55%

NC(=O)c1ccc(N/C(=N\C(=O)c2ccccc2)NC(=O)c2cccc(Br)c2)cc1
Improvement (Mus musculus [15]): 118%
survival at 10 mg/kg (Mus musculus [16]): 50%

NC(=O)c1ccc(N/C(=N\C(=O)c2ccccc2)NC(=O)c2cccc([N+](=O)[O-])c2)cc1
survival at 100 mg/kg (Mus musculus [17]): 60%

Cc1ccc(C(=O)N/C(=N/C(=O)c2ccccc2)Nc2ccc(C(N)=O)cc2)cc1
survival at 10 mg/kg (Mus musculus [6]): 5%

N#Cc1ccc(C(=O)N/C(=N/C(=O)c2ccccc2)Nc2ccc(C(N)=O)cc2)cc1
survival at 100 mg/kg (Mus musculus [18]): 38%

COc1ccc(C(=O)N/C(=N/C(=O)c2ccccc2)Nc2ccc(C(N)=O)cc2)cc1
survival at 10 mg/kg (Mus musculus [19]): 50%
Improvement (Mus musculus [20]): 28%

NC(=O)c1ccc(N/C(=N\C(=O)c2ccc(F)cc2)NC(=O)c2cccc(F)c2)cc1
Improvement (Mus musculus [21]): inactive
survival at 100 mg/kg (Mus musculus [22]): 68%

NC(=O)c1ccc(N/C(=N\C(=O)c2ccccc2)NC(=O)c2cccc(Cl)c2)cc1
Improvement (Mus musculus [23]): 49%
survival at 100 mg/kg (Mus musculus [24]): 95%

COc1ccc(C(=O)/N=C(/NC(=O)c2ccc(OC)cc2)Nc2ccc(C(N)=O)cc2)cc1
survival at 10 mg/kg (Mus musculus [6]): 15%

NC(=O)c1ccc(N/C(=N\C(=O)c2ccccc2)NC(=O)c2ccc(Br)cc2)cc1
survival at 25 mg/kg (Mus musculus [25]): 60%
Improvement (Mus musculus [26]): 12%

NC(=O)c1ccc(N/C(=N\C(=O)c2cccc(C(F)(F)F)c2)NC(=O)c2cccc(C(F)(F)F)c2)cc1
survival at 100 mg/kg (Mus musculus [27]): 5%

NC(=O)c1ccc(N/C(=N\C(=O)c2ccc(F)cc2)NC(=O)c2cccc(Cl)c2)cc1
survival at 10 mg/kg (Mus musculus [6]): 25%

NC(=O)c1ccc(N/C(=N\C(=O)c2ccccc2)NC(=O)c2ccc(C(F)(F)F)cc2)cc1
survival at 100 mg/kg (Mus musculus [28]): 40%

COc1ccc(C(=O)/N=C(/NC(=O)c2cccc(C)c2)Nc2ccc(C(N)=O)cc2)cc1
Improvement (Mus musculus [29]): 28%
survival at 10 mg/kg (Mus musculus [16]): 50%

Cc1cccc(C(=O)N/C(=N/C(=O)c2ccccc2)Nc2ccc(C(N)=O)cc2)c1
survival at 100 mg/kg (Mus musculus [27]): 25%

NC(=O)c1ccc(N/C(=N\C(=O)c2ccccc2)NC(=O)c2ccc([N+](=O)[O-])cc2)cc1
survival at 100 mg/kg (Mus musculus [30]): 25%

CCOc1cccc(C(=O)N/C(=N/C(=O)c2ccccc2)Nc2ccc(C(N)=O)cc2)c1
survival at 10 mg/kg (Mus musculus [31]): 67%

COc1ccc(C(=O)/N=C(/NC(=O)c2ccc(C)cc2)Nc2ccc(C(N)=O)cc2)cc1
Improvement (Mus musculus [7]): inactive
survival at 100 mg/kg (Mus musculus [27]): 43%

NC(=O)c1ccc(N/C(=N\C(=O)c2ccc(F)cc2)NC(=O)c2ccc(Br)cc2)cc1
survival at 25 mg/kg (Mus musculus [32]): 40%
